The assay has as its target T1, cytosolic NADP-ME2 (recombinant Arabidopsis NADP-malic enzyme 2) (Arabidopsis thaliana, UniProt Q9LYG3).
T1 construct: full-length cDNA (1785 bp PCR product) in pALEXb; E. coli
T1 sequence (Q9LYG3 1-588): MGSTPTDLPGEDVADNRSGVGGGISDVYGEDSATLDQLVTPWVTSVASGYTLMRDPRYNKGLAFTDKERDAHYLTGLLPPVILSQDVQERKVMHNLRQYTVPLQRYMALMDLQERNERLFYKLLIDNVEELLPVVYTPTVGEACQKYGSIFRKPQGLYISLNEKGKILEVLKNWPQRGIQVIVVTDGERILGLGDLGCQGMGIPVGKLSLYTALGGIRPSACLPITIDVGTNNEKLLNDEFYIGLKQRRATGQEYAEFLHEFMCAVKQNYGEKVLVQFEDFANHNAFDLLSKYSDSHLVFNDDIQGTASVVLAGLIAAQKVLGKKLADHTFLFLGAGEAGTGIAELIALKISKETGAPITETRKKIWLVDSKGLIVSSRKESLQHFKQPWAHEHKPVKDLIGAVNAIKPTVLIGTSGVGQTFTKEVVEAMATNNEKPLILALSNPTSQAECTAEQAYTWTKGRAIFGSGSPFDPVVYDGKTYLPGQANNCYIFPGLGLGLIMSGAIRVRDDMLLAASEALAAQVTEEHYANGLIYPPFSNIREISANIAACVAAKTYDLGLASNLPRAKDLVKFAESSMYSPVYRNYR
Briefly: spectrophotometric NADP reduction at […] nm after preincubation with peroxynitrite donor. The settings on record: covalent (Tyr-73 nitration); peroxynitrite generated in situ from donor SIN-1, so concentration is that of the donor; 37 °C, 1 h preincubation; assay pH 7.6, 25 °C, 2 mM MgCl2, 0.8 mM NADP, 1 mM L-mal. In kind it is biochemical.

In the case of ONOO^−, the “% inhibition with 5 mM SIN-1 (donor)” value is recorded as 56%.

(Values after article PMC6827146, “Short-Term Low Temperature Induces Nitro-Oxidative Stress that Deregulates the NADP-Malic Enzyme Function by Tyrosine Nitration in Arabidopsis thaliana” (Antioxidants, 2019).)
